From ChEMBL document CHEMBL5465560, “Selectivity Literature for EUbOPEN Chemogenomic Library” (2024)

Experiments:
[1] = biological target: T1, cGMP-dependent protein kinase 1 (Homo sapiens) (UniProt Q13976); assay: Selectivity interaction (Ambit KINOMEscan and KiNATiv profiling in Jurkat cells) EUB0000090b PRKG1; assay type: cell-based; settings: at 1 µM
T1 sequence (whole entry): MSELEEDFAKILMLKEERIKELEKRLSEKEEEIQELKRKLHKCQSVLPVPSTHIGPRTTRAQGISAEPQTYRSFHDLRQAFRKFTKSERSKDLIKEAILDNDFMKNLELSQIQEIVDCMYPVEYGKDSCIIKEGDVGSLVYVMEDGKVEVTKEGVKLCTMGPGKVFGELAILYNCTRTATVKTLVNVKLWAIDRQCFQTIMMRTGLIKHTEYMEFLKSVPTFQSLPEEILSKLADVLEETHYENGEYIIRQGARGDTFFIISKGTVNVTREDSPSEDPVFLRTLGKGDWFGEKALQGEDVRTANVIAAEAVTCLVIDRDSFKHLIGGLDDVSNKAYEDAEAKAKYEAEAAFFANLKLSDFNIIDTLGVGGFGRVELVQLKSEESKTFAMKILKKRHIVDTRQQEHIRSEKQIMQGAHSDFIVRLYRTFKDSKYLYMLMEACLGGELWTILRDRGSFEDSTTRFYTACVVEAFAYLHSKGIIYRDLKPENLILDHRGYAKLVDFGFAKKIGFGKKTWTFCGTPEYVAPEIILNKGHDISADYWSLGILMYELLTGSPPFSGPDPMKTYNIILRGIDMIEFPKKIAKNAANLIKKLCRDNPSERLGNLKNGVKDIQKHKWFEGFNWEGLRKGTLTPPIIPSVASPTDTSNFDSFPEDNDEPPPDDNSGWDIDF

[2] = biological target: T2, Cytoplasmic tyrosine-protein kinase BMX (Homo sapiens) (UniProt P51813); assay: Selectivity interaction (KinomeScan (DiscoverX)) EUB0000618a BMX; settings: at 10 µM
T2 sequence (whole entry): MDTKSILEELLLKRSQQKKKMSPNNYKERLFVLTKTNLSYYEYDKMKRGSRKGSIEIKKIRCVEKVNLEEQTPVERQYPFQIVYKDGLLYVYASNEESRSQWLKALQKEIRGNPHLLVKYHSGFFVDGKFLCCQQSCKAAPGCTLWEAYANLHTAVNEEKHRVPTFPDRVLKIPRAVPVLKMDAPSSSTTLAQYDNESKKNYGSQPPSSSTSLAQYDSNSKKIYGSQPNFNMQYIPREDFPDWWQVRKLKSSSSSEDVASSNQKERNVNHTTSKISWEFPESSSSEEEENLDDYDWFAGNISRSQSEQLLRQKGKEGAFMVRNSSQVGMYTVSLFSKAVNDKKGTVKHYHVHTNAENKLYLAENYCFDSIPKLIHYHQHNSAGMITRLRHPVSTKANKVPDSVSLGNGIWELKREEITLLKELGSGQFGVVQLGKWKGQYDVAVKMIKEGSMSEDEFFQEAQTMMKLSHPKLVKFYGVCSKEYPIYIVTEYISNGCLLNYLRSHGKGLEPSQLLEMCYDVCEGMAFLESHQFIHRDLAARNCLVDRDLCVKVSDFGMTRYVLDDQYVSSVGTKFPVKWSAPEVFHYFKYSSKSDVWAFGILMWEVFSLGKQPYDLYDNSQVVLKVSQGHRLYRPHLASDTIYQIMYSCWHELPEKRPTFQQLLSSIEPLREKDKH

[3] = biological target: T3, Tyrosine-protein kinase TXK (Homo sapiens) (UniProt P42681); assay: Selectivity interaction (KinomeScan (DiscoverX)) EUB0000607a TXK; settings: at 10 µM
T3 sequence (whole entry): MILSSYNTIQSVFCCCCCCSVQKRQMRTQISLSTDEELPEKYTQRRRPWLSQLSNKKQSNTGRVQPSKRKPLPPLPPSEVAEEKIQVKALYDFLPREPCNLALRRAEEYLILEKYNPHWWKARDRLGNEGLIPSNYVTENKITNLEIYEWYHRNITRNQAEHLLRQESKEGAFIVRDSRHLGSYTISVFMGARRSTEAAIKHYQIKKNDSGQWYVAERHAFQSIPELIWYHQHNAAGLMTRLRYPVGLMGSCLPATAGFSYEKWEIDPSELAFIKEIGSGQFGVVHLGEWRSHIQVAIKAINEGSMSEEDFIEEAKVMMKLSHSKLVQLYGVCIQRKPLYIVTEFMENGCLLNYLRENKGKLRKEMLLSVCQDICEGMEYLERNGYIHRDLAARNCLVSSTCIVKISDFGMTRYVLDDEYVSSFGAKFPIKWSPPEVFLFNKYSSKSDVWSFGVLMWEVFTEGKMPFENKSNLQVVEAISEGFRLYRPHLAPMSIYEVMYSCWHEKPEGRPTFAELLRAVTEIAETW

[4] = biological target: T3, Tyrosine-protein kinase TXK (Homo sapiens); assay: Selectivity interaction (KinomeScan (DiscoverX)) EUB0000595a TXK; settings: at 10 µM
[5] = biological target: Serine/threonine-protein kinase 38-like (Homo sapiens) (UniProt Q9Y2H1); assay: Selectivity interaction (Kinase panel (KiNativ target engagement assay in Jurkat cells)) EUB0001635a STK38L; assay type: cell-based; settings: Selectivity number of off-targets 0.0, Selectivity number of targets 233.0, Source Knowledge https://www.sciencedirect.com/science/article/pii/S2451945619300674?via%3Dihub, at 1 µM
[6] = biological target: T4, Phosphatidylinositol 5-phosphate 4-kinase type-2 gamma (Homo sapiens) (UniProt Q8TBX8); assay: Selectivity interaction (ActivX KiNativ screen (kinase selectivity in THP-1 cell lysates)) EUB0000639a PIP4K2C; assay type: subcellular; settings: lysate, at 1 µM
T4 sequence (whole entry): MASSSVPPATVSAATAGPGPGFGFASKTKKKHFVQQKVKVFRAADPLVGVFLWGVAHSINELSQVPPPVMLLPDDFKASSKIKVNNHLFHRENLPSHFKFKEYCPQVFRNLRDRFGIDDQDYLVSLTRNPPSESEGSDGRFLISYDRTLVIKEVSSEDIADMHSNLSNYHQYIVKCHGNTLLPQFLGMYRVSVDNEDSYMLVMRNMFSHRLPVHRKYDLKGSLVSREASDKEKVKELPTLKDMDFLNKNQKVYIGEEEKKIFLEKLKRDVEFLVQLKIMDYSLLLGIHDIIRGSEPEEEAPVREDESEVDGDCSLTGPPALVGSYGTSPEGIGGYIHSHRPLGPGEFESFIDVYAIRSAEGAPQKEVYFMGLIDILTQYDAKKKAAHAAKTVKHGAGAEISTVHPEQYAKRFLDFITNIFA

[7] = biological target: RAC-gamma serine/threonine-protein kinase (Homo sapiens, UniProt Q9Y243); assay: Selectivity interaction (KinomeScan (DiscoverX)) EUB0000092b AKT3; settings: at 10 µM
Chain of RAC-gamma serine/threonine-protein kinase (Q9Y243 whole entry): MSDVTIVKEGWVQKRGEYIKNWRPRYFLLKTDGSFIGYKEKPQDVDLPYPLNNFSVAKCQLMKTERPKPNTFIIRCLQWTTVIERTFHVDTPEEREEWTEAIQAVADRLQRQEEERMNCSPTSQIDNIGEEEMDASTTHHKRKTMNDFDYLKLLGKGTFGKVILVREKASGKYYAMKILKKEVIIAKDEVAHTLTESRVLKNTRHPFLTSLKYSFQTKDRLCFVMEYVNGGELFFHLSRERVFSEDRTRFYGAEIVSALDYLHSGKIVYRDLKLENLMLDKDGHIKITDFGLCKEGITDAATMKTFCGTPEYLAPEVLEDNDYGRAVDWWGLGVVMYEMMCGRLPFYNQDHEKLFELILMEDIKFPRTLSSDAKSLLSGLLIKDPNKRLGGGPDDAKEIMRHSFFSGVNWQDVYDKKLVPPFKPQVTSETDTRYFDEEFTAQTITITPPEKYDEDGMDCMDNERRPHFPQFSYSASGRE

Chain of Serine/threonine-protein kinase 38-like (Homo sapiens) (Q9Y2H1 2-464 limits assumed): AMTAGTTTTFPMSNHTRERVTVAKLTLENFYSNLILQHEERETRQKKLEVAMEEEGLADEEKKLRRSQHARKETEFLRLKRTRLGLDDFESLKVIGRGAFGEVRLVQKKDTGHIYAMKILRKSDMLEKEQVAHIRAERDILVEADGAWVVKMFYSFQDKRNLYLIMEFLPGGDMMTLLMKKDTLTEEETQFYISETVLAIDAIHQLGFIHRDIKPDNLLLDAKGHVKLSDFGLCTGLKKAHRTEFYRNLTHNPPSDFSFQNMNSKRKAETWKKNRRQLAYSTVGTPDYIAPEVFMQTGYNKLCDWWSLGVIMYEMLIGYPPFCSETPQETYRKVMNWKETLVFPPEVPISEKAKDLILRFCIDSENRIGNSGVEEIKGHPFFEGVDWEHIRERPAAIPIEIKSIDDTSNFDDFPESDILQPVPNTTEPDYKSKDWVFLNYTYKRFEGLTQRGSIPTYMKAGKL

CN(C)C/C=C/C(=O)Nc1ccc(C(=O)N2CCCC(Nc3ncc(Cl)c(-c4c[nH]c5ccccc45)n3)C2)cc1 (configuration not stated)
% of control [1]: 97%

O[C@H]1CC[C@H](Nc2ncc3nc(Nc4c(F)cc(F)cc4F)n([C@H]4CCOC4)c3n2)CC1
% of control [2]: 100%

CNC(=O)Nc1ccc(-c2nc(N3CC4CCC(C3)O4)c3cnn(C4CCC5(CC4)OCCO5)c3n2)cc1
% of control [3]: 94%

COCC(=O)NC/C=C/c1ccc2ncnc(Nc3ccc(Oc4ccc(C)nc4)c(C)c3)c2c1 [CP-724714]
% of control [4]: 84%

C=CC(=O)Nc1ccc(C(=O)Nc2[nH]nc3c2CN(C(=O)N[C@H](CN(C)C)c2ccccc2)C3(C)C)cc1
% of engagement [5]: 3.8%

CC[C@@H]1[C@H](F)C(=O)N[C@@H]1COc1nccc2cc(C(N)=O)c(OC)cc12 [ZIMLOVISERTIB]
% of inhibition [6]: 76.4%

CCC(=O)N1CCN(c2ccc(-n3c(=O)ccc4cnc5ccc(-c6cnc7ccccc7c6)cc5c43)cc2C(F)(F)F)CC1
% of control [7]: 77%
